Values of other authors, collected in paper PMC7797166 (Journal of thoracic oncology : official publication of the …, 2020).
Read-outs that look alike come from different tables or passages of the source.

System: T cell
Settings: ref Li et al[31], cited from earlier work

Sequence | tetramer assay (HLA-A*31:01) | tetramer assay (HLA-A*11:01)
HVKITDFGR | positive | 
KITDFGRAK |  | negative
